Results on 11 compounds are retold here after patent publication US9499493B2, “2,4-pyrimidinediamine compounds and their uses” (Rigel Pharmaceuticals, Inc., priority 2002, dated 2016).

The structures appear in SMILES notation. pIC50: −log10 of the molar value.

The subject of assay [1] is cultured human mast cells (CHMC). The assay can be described thus: CHMC low cell density IgE activation: tryptase assay. The class given is cell-based. The settings on record: anti-IgE. In a few lines:
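Supernatant tryptase activity, assayed with substrate for 30 min at room temperature, served as the degranulation measure. Mast cells (1000-1500 per well depending on donor) sat 1 hr at 37° C in MT before a 30 min anti-IgE challenge at 37° C.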

Assay [2] has the same test system. The assay can be described thus: CHMC low cell density ionomycin activation: tryptase assay. The class given is cell-based.

As usually defined, the pIC50 is the negative decadic logarithm of the IC50, by convention in mol/L. Higher therefore signals a low IC50. For the compound `CC(C)(C)c1cccc(Nc2nc(Nc3cccc(OCC(=O)NCCO)c3)ncc2F)c1` [R940295, N4-(3-tert-Buthylpheny)-5-fluoro-N2-[3-(N-2-hydroxyethylamino)carbonylmethyleneoxyphenyl]-2,4-pyrimidinediamine], the negative-log IC50 (pIC50) in assay [1] was 6.90; in assay [2] it was 5.05.

On to `CC(C)(C)c1cccc(Nc2nc(Nc3cccc(OCC(=O)NC(CO)CO)c3)ncc2F)c1` [R940296, N4-(3-tert-Butylpheny)-N2-[3-(N-1,3-dihydroxypropyl-2-amino)carbonylmethyleneoxyphenyl]-5-fluoro-2,4-pyrimidinediamine], for which the figures for the pIC50 in assay [1] and in assay [2] were 6.39 and under 5.00, respectively.

Turning to `CNC(=O)COc1cccc(Nc2ncc(F)c(Nc3cccc(C(N)=O)c3)n2)c1` [R940299, 5-Fluoro-N2-[3-(methylaminocarbonylmethyleneoxy)phenyl]-N4-(3-aminocarbonylphenyl)-2,4-pyrimidinediamine], the negative logarithm of the IC50 (pIC50) in assay [1] is 5.60; in assay [2], under 5.00.

For the compound `CNC(=O)COc1cccc(Nc2ncc(F)c(Nc3ccc(OC)c(C(=O)OC)c3)n2)c1` [R940300, 5-Fluoro-N2-[3-(methylaminocarbonylmethyleneoxy)phenyl]-N4-(3-methyloxycarbonyl-4-methoxyphenyl)-2,4-pyrimidinediamine], the negative logarithm of the IC50 (pIC50) in assay [1] was 5.00; in assay [2] it was under 5.00.

`CNC(=O)COc1cccc(Nc2ncc(F)c(Nc3ccc(OC)c(C(=O)NC)c3)n2)c1` [R940306, 5-Fluoro-N2-[3-(methylaminocarbonylmethyleneoxy)phenyl]-N4-(3-methylaminocarbonyl-4-methoxyphenyl)-2,4-pyrimidinediamine]: the values for the negative logarithm of the IC50 (pIC50) in assay [1] and in assay [2] were 5.96 and under 5.00, respectively.

For the compound `CC(C)c1cccc(Nc2nc(Nc3cccc(OCC(=O)NC[C@@H](O)CO)c3)ncc2F)c1` [R940307, (R)—N2-[3-(dihydroxypropylaminocarbonylmethyleneoxy)-phenyl]-5-fluoro-N4-(3-isopropylphenyl)-2,4-pyrimidinediamine], the pIC50 was 6.54 in assay [1] and under 5.00 in assay [2].

`CNC(=O)COc1cccc(Nc2ncc(F)c(Nc3cccc(CN)c3)n2)c1` [R940309, N4-(3-Aminomethylenephenyl)-5-fluoro-N2-[3-(methylaminocarbonylmethyleneoxy)phenyl]-2,4-pyrimidinediamine]: the pIC50 in assay [1] was 5.95; in assay [2] it was under 5.00.

As to `CNCc1cccc(Nc2nc(Nc3cccc(OCC(=O)NC)c3)ncc2F)c1` [R940317, N4-(3-N-methylaminomethylenephenyl)-5-fluoro-N2-[3-(methylaminocarbonylmethyleneoxy)phenyl]-2,4-pyrimidinediamine], the figures for the negative logarithm of the IC50 (pIC50) in assay [1] and in assay [2] were 6.04 and under 5.00, respectively.

Take `CNC(=O)COc1cccc(Nc2ncc(F)c(Nc3ccc4c(c3)NC(=O)C(C)(C)O4)n2)c1` [R940323, N4-[(2,2-Dimethyl-4H-benzo[1,4]oxazin-3-one)-6-yl]-5-fluoro-N2-[3-(methylaminocarbonylmethyleneoxy)phenyl]-2,4-pyrimidinediamine]: the results for the negative-log IC50 (pIC50) in assay [1] and in assay [2] were 7.32 and under 5.00, respectively.

`Cn1ncc2cc(Nc3ncc(F)c(Nc4ccc5c(c4)NC(=O)C(C)(C)O5)n3)ccc21` [R940338, N4-[(2,2-Dimethyl-4H-benzo[1,4]oxazin-3-one)-6-yl]-5-fluoro-N2-(1-methylindazolin-5-yl)-2,4-pyrimidinediamine]: the negative-log IC50 (pIC50) in assay [1] was 7.14; in assay [2], under 5.00.

In the case of `O=C1Nc2cc(Nc3nc(Nc4cccc(O)c4)ncc3F)ccc2OC1(F)F` [R940349, N4-[(2,2-Difluoro-4H-benzo[1,4]oxazin-3-one)-6-yl]-5-fluoro-N2-(3-hydroxyphenyl)-2,4-pyrimidinediamine], the pIC50 is 7.36 in assay [1] and 5.13 in assay [2].
